In ChEMBL document CHEMBL5143660, “Investigation on the chemical space of the substituted triazole thio-benzoxazepinone RIPK1 inhibitors” (Eur J Med Chem, 2022):

How the values were obtained:
[1] = system: HT-29; assay: Anti-necroptic activity in human HT-29 cells assessed as inhibition of TSZ induced necroptosis measured after 16 to 24 hrs by celltiter-glo luminescent cell viability assay; assay type: functional, cell-based
[2] = Cytotoxicity against human HT-29 cells assessed as reduction in cell viability; assay type: toxicity, cell-based
[3] = molecular target: T1, Receptor-interacting serine/threonine-protein kinase 1 (Homo sapiens, UniProt Q13546); assay: Binding affinity to wild-type human partial length RIPK1 (M1 to K305 residues) expressed in bacterial expression system incubated for 1 hr under shaking condition by Kinomescan method
T1 sequence (Q13546 whole entry): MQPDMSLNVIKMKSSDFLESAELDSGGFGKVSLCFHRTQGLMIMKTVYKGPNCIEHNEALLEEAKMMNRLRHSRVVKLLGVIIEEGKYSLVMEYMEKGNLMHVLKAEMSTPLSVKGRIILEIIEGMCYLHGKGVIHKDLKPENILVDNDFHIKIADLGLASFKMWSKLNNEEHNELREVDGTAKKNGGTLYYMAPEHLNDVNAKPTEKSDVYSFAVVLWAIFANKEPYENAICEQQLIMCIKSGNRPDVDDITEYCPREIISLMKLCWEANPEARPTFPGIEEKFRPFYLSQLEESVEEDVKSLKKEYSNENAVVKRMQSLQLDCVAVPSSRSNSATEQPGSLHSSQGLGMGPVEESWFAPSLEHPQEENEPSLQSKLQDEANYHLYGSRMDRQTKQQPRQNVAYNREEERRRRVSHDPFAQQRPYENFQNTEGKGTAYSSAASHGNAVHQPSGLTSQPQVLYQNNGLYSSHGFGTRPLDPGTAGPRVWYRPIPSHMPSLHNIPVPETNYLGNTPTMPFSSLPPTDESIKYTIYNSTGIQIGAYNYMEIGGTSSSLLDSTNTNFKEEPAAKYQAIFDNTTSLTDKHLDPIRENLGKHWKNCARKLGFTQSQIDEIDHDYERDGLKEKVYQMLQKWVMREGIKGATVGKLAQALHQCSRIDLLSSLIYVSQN

Q: What does the source list for `CN1C(=S)[C@@H](NC(=O)c2nc(Cc3ccccc3)n(CCC(F)(F)F)n2)COc2ccccc21`?
A: EC50 [1]: 1.55 µM; CC50 [2]: > 100 µM

Q: For `CN1C(=S)[C@@H](NC(=O)c2nc(Cc3ccccc3)n(C3COC3)n2)COc2ccccc21`, which EC50 [1] is on record?
A: 0.916 µM

Q: And the CC50 [2]?
A: > 100 µM

Q: Which EC50 [1] does the source give for `Cc1cnc(-n2nc(C(=O)N[C@H]3COc4ccccc4N(C)C3=S)nc2Cc2ccccc2)nc1` here?
A: 1.95 µM

Q: And the CC50 [2]?
A: > 100 µM

Q: For `CN1C(=S)[C@@H](NC(=O)c2nc(Cc3ccccc3)n(CCCCCC#N)n2)COc2ccccc21`, which EC50 [1] is on record?
A: 3.83 µM

Q: And the CC50 [2]?
A: > 100 µM

Q: With `CN1C(=O)[C@@H](NC(=O)c2nnc(Cc3ccccc3)[nH]2)COc2ccccc21` [GSK2982772] as the compound, how does the CC50 [2] read?
A: > 50 µM

Q: For `CN1C(=S)[C@@H](NC(=O)c2nc(Cc3ccccc3)n(-c3ncccn3)n2)COc2ccccc21`, which EC50 [1] is on record?
A: 3.97 µM

Q: And the CC50 [2]?
A: > 100 µM

Q: Which EC50 [1] does the source give for `CN1C(=S)[C@@H](NC(=O)c2nc(Cc3ccccc3)n(CC3CCOC3)n2)COc2ccccc21` (stereo not given in full) here?
A: 4.42 µM

Q: What about the CC50 [2] of the same compound?
A: > 100 µM

Q: Which Kd [3] does the source give for `CN1C(=S)[C@@H](NC(=O)c2n[nH]c(Cc3ccccc3)n2)COc2ccccc21` here?
A: 0.031 µM

Q: And the CC50 [2]?
A: > 50 µM

Q: For `CN1C(=S)[C@@H](NC(=O)c2nc(Cc3ccccc3)n(C3CCN(C(=O)OC(C)(C)C)C3)n2)COc2ccccc21` (stereo not given in full), which EC50 [1] is on record?
A: > 10 µM

Q: What about the CC50 [2] of the same compound?
A: > 100 µM

Q: What does the source list for `CN1C(=S)[C@@H](NC(=O)c2nc(Cc3ccccc3)n(C3CCCC3)n2)COc2ccccc21`?
A: EC50 [1]: 3.53 µM; CC50 [2]: > 100 µM

Q: Which EC50 [1] does the source give for `CN1C(=S)[C@@H](NC(=O)c2nc(Cc3ccccc3)n(C3CCN(C(=O)OC(C)(C)C)CC3)n2)COc2ccccc21` here?
A: > 10 µM

Q: And the CC50 [2]?
A: > 100 µM

Q: With `CN1C(=S)[C@@H](NC(=O)c2nc(Cc3ccccc3)n(C3CCCCC3)n2)COc2ccccc21` as the compound, how does the EC50 [1] read?
A: 4 µM

Q: And the CC50 [2]?
A: > 100 µM

Q: For `CN1C(=S)[C@@H](NC(=O)c2nc(Cc3ccccc3)n(C3CCOC3)n2)COc2ccccc21` (stereo not given in full), which Kd [3] is on record?
A: 0.272 µM

Q: What about the EC50 [1] of the same compound?
A: 1.58 µM

Q: What about the CC50 [2] of the same compound?
A: > 100 µM

Q: With `CC(C)n1nc(C(=O)N[C@H]2COc3ccccc3N(C)C2=S)nc1Cc1ccccc1` as the compound, how does the EC50 [1] read?
A: 0.36 µM

Q: What about the CC50 [2] of the same compound?
A: > 100 µM

Q: What does the source list for `CN1C(=S)[C@@H](NC(=O)c2nc(Cc3ccccc3)n(CCCF)n2)COc2ccccc21`?
A: EC50 [1]: 4.76 µM; CC50 [2]: > 100 µM

Q: Which EC50 [1] does the source give for `COCCn1nc(C(=O)N[C@H]2COc3ccccc3N(C)C2=S)nc1Cc1ccccc1` here?
A: 0.566 µM

Q: What about the CC50 [2] of the same compound?
A: > 100 µM

Q: Which EC50 [1] does the source give for `CCCn1nc(C(=O)N[C@H]2COc3ccccc3N(C)C2=S)nc1Cc1ccccc1` here?
A: 0.288 µM

Q: And the CC50 [2]?
A: > 100 µM

Q: For `CN1C(=S)[C@@H](NC(=O)c2nc(Cc3ccccc3)n(CC3CCOCC3)n2)COc2ccccc21`, which EC50 [1] is on record?
A: 6.31 µM

Q: What about the CC50 [2] of the same compound?
A: > 100 µM

Q: With `CN1C(=S)[C@@H](NC(=O)c2nc(Cc3ccccc3)n(CCCO)n2)COc2ccccc21` as the compound, how does the EC50 [1] read?
A: 0.208 µM

Q: What about the CC50 [2] of the same compound?
A: > 100 µM

Q: Which Kd [3] does the source give for `CN1C(=S)[C@@H](NC(=O)c2nc(Cc3ccccc3)n(C3CCC3)n2)COc2ccccc21` here?
A: 0.301 µM

Q: And the EC50 [1]?
A: 0.181 µM

Q: What about the CC50 [2] of the same compound?
A: > 100 µM

Q: Which EC50 [1] does the source give for `CN1C(=S)[C@@H](NC(=O)c2nc(Cc3ccccc3)n(CCCCC#N)n2)COc2ccccc21` here?
A: 2.68 µM

Q: And the CC50 [2]?
A: > 100 µM

Q: For `CN1C(=S)[C@@H](NC(=O)c2nc(Cc3ccccc3)n(CC(F)F)n2)COc2ccccc21`, which EC50 [1] is on record?
A: 0.0089 µM

Q: What about the CC50 [2] of the same compound?
A: > 100 µM

Q: Which results are given for `CN1C(=S)[C@@H](NC(=O)c2nc(Cc3ccccc3)n(C3CCCCCC3)n2)COc2ccccc21`?
A: EC50 [1]: 5.53 µM; CC50 [2]: > 100 µM

Q: With `CCCCn1nc(C(=O)N[C@H]2COc3ccccc3N(C)C2=S)nc1Cc1ccccc1` as the compound, how does the EC50 [1] read?
A: 0.51 µM

Q: And the CC50 [2]?
A: > 100 µM

Q: With `CCCCCn1nc(C(=O)N[C@H]2COc3ccccc3N(C)C2=S)nc1Cc1ccccc1` as the compound, how does the EC50 [1] read?
A: 0.805 µM

Q: What about the CC50 [2] of the same compound?
A: > 100 µM

Q: Which results are given for `CN1C(=S)[C@@H](NC(=O)c2nc(Cc3ccccc3)n(CCCC#N)n2)COc2ccccc21`?
A: EC50 [1]: 2.4 µM; CC50 [2]: > 100 µM

Q: What does the source list for `CN1C(=S)[C@@H](NC(=O)c2nc(Cc3ccccc3)n(C3CCNC3)n2)COc2ccccc21` (stereo not given in full)?
A: EC50 [1]: 1.07 µM; CC50 [2]: > 100 µM

Q: Which results are given for `CN1C(=S)[C@@H](NC(=O)c2nc(Cc3ccccc3)n(C3CCNCC3)n2)COc2ccccc21`?
A: EC50 [1]: 1 µM; CC50 [2]: > 100 µM

Q: For `CN1C(=S)[C@@H](NC(=O)c2nc(Cc3ccccc3)n(CCCC(F)(F)F)n2)COc2ccccc21`, which EC50 [1] is on record?
A: 2.38 µM

Q: And the CC50 [2]?
A: > 100 µM

Q: Which results are given for `CC(C)CCn1nc(C(=O)N[C@H]2COc3ccccc3N(C)C2=S)nc1Cc1ccccc1`?
A: EC50 [1]: 3.64 µM; CC50 [2]: > 100 µM

Q: With `CN1C(=S)[C@@H](NC(=O)c2nc(Cc3ccccc3)n(C3CCOCC3)n2)COc2ccccc21` as the compound, how does the EC50 [1] read?
A: 2.26 µM

Q: What about the CC50 [2] of the same compound?
A: > 100 µM

Q: Which Kd [3] does the source give for `CCn1nc(C(=O)N[C@H]2COc3ccccc3N(C)C2=S)nc1Cc1ccccc1` here?
A: 0.079 µM

Q: What about the EC50 [1] of the same compound?
A: 0.017 µM

Q: And the CC50 [2]?
A: > 100 µM

Q: For `CN1C(=S)[C@@H](NC(=O)c2nc(Cc3ccccc3)n(CC3COC3)n2)COc2ccccc21`, which EC50 [1] is on record?
A: 2.83 µM

Q: And the CC50 [2]?
A: > 100 µM

Q: What does the source list for `CC(C)Cn1nc(C(=O)N[C@H]2COc3ccccc3N(C)C2=S)nc1Cc1ccccc1`?
A: EC50 [1]: 1.23 µM; CC50 [2]: > 100 µM

Q: For `CN1C(=S)[C@@H](NC(=O)c2nc(Cc3ccccc3)n(Cc3ccccc3)n2)COc2ccccc21`, which EC50 [1] is on record?
A: 0.414 µM

Q: And the CC50 [2]?
A: > 100 µM

Q: What does the source list for `CN1C(=S)[C@@H](NC(=O)c2nc(Cc3ccccc3)n(CC(F)(F)F)n2)COc2ccccc21`?
A: Kd [3]: 0.267 µM; EC50 [1]: 0.036 µM; CC50 [2]: > 100 µM
